{"source": "patent US20250262167A1", "about": "“COMPOUNDS, TARGETS AND PATHWAYS FOR MACROPHAGE MODULATION” (Massachusetts Institute of Technology, priority 2020, published 2025)", "tested_on": "ImKCs (immortalized line of mouse Kupffer cells)", "test": "Seahorse ECAR/OCR (glycolysis, OxPhos) in ImKCs", "assay_type": "cell-based", "protocol": "Shown are representative data of three independent experiments. […] Data are presented as the mean±sd (n=4).\nFIGS. 21A-21I show DPI stimulates glycolysis through GPR3 and β-arrestin2. FIGS. 21A-21B show DPI-stimulated glycolysis is independent of the NOX activity. […] The mean fluorescence intensity (MFI) of 2-NBDG in cells was measured by flow cytometry and normalized to DMSO controls of wildtype BMDMs. Data are presented as the mean±sd (n=3). […] ImKCs were transfected with siRNA specific for Gpr3 or a scramble siRNA as control. […] Data are presented as the mean±sd (n=4). […] Data are presented as the mean±sd (n=12). […] Abbr2^−/− ImKC were constructed by CRISPR-Cas9-mediated gene editing. […] Data are presented as the mean±sd (n=4). […] ImKCs were transfected with Abbr2-GFP fusion gene and stimulated with DMSO, DPI (50 nM), or S1P (3 mM). The GFP signal was captured with a TIRF microscope at indicated time points. Shown are representative data of GFP signal at 0 min and 10 min, and merged signal from three independent experiments.\nSpecific parameters for glycolytic capacity and glycolytic reserve were calculated and summarized based on two independent experiments. […] The GFP signal was captured with a TIRF microscope at indicated time points. Shown are representative data of GFP signal at 0 min and 10 min, and the merged signal from three independent experiments.\nOCR and ECAR were measured in isolated tissues or cultured ImKCs using the Seahorse XFe Extracellular Flux Analyzer (Agilent). For tissue respiration assays, 1.0 mg adipose tissue was dissected from inguinal WAT depots by using a surgical biopsy instrument (Integra Miltex Standard Biopsy Punches, Thermo Fisher) and placed into XF96 Islet Capture Microplates and pre-incubated with XF assay medium with pH value at 7.4. XF assay medium supplemented with 1 mM sodium pyruvate, 2 mM GlutaMax™-I, and 25 mM glucose. Isolated MDMs or Kupffer cells were subjected to a mitochondrial stress test by adding oligomycin (2 μM) followed by carbonyl cyanide 4-(trifluoromethoxy), phenylhydrazone (FCCP, 5 μM), and antimycin (1 μM). For glucose stress assay and ECAR measurement, XF assay medium was supplemented only with GlutaMax™-I. Tissue or cells were subjected to a glucose stress test by adding highly concentrated glucose (for tissue, 25 mM; for cells, 10 mM), followed by adding oligomycin (5 μM), FCCP (5 μM), and 2-DG (50 mM). Cells were seeded in culture dishes, and the medium was changed after 6 hours with serum-free DMEM. Cells were incubated for 12-16 hours, and the culture medium was then collected for measurement of glucose and lactate concentrations. Glucose levels were determined using a glucose (GO) assay kit (Sigma). Glucose consumption was the difference in glucose concentration when compared with DMEM. Lactate levels were determined using a lactate assay kit (Eton Bioscience).\nDPI is an agonist of GPR3 and an inhibitor of […] oxidase (NOX). We first determined the requirement of NOX in DPI-stimulated glycolysis.\nTo determine the requirement of GPR3, we knocked down GPR3 by siRNA (siGpr3) in ImKCs.\nβ-arrestin2, encoded by Arrb2, has been reported to bind to GPR3 and is required for GPR3 signaling. To investigate the requirement of 0-arrestin2 in DPI-stimulated glycolysis, we constructed Arrb2^−/− ImKCs using CRISPR-Cas9 mediated gene editing (FIG. 28F).", "key": {"[1]": {"settings": "5, 50 and 500 nM, short-term, dose-dependent"}}, "data": [{"compound": "c1ccc2c(c1)[I+]c1ccccc1-2", "note": "[Diphenyleneiodonium chloride]", "values": [{"measurement": "ECAR", "setting": "[1]", "result": "immediate increase"}, {"measurement": "OCR", "setting": "[1]", "result": "concomitant decrease"}, {"measurement": "glycolytic capacity and reserve", "setting": "50 and 500 nM, 24 hrs", "result": "significant increase"}, {"measurement": "glycolysis and glycolytic capacity", "setting": "Arrb2−/− ImKCs, 50 nM", "result": "did not stimulate any increase"}, {"measurement": "glycolysis, glycolytic capacity and glucose consumption", "setting": "siGpr3 ImKCs, 50 nM", "result": "did not stimulate any increase"}, {"measurement": "glycolysis and glycolytic capacity", "setting": "siGpr3 ImKCs, 500 nM, lower than in scramble siRNA ImKCs", "result": "significant increase"}]}]}
